Test results: US20010036941A1, “Use of 7-(1-aminomethyl-2-oxa-7-aza-bicyclo[3.3.0]oct-7-yl)-quinolonecarboxylic acid and -naphthyridonecarboxylic acid derivatives for the therapy of Helicobacter pylori infections and associated gastroduodenal disorders” (priority 1996, published 2001)
In brackets after ≈: the same amount, converted by molar mass. Structures can show the parent of a compound that is named as a salt.

Experiments:
[1] = test system: H. felis strain (ATCC 49179); assay: H. felis mouse model (clearance / eradication, urease test); type: in vivo, mice; conditions: for Eradication of H. felis in the mouse model: animal model (H. felis, mouse), monotherapeutic treatment; for Clearance %: 3-day treatment of infected mice, 2 × 10 mg/kg, 6 animals per group
Protocol: The bacteria were administered as a suspension (0.1 ml with 10^8-10^9 bacteria) 4 times within 7 days using a pharyngeal tube. Alternatively, stomach homogenates of mice which had been infected earlier were also used for infection.
In some cases, pathogen eradication 24 weeks after the end of the treatment was also determined. In accordance with the “CLO” test used in clinical diagnostics, a microtitre-based urease test was used. Defined stomach biopsy specimens were tested for change of colour within a period of 24 hours.

[2] = test system: H. pylori clinic isolate 008; assay: MIC, agar dilution test, H. pylori clinic isolate 008; type: cell-based; conditions: lowest concentration with no visible growth; for MIC: Helicobacter pylori
Protocol: (§1) For inoculation, fresh Helicobacter cultures from liquid culture or suspension of the pathogens from agar plates were used. The inoculated agar plates were incubated at 37° C. in an atmosphere containing 5-10% of CO2 for 48-72 hours.

[3] = test system: H. pylori NCTC 11637; assay: MIC, agar dilution test, H. pylori NCTC 11637; type: cell-based; conditions: for MIC: Helicobacter pylori, NCTC11637, lowest concentration with no visible growth
Protocol: as §1

[4] = test system: H. pylori; conditions: cited from earlier work

melting point	SMILES	other results
215 to 216 °C (dec.)	COc1c(N2CC3CCOC3(CN)C2)c(F)cc2c(=O)c(C(=O)O)cn(C3CC3)c12.O=C(O)C(F)(F)F (stereo not drawn)	–
144 to 146 °C (dec.)	CCOC(=O)COC(=O)c1cn(C2CC2)c2c(F)c(N3CC4CCOC4(CN)C3)c(F)cc2c1=O (stereo not drawn) [Example 15 B, Ethoxycarbonylmethyl 7-(1-aminomethyl-2-oxa-7-aza-bicyclo[3.3.0]oct-7-yl)-1-cyclopropyl-6,8-difluoro-1,4-dihydro-4-oxo-3-quinolinecarboxylate]	–
199 to 200 °C (dec.)	CCOC(=O)c1cn(C2CC2)c2c(F)c(N3CC4CCOC4(CN)C3)ncc2c1=O.O=C(O)C(F)(F)F (stereo not drawn)	–
139 to 141 °C	CCOC(=O)c1cn(C2CC2)c2c(F)c(N3CC4CCOC4(CN)C3)c(F)cc2c1=O.O=C(O)C(F)(F)F (stereo not drawn)	–
118 to 119 °C (dec.)	NCC12CN(c3c(F)cc4c(=O)c(C(=O)OCc5ccccc5)cn(C5CC5)c4c3F)CC1CCO2 (stereo not drawn) [Example 14 B, Benzyl 7-(1-aminomethyl-2-oxa-7-aza-bicyclo[3.3.0]oct-7-yl)-1-cyclopropyl-6,8-difluoro-1,4-dihydro-4-oxo-3-quinolinecarboxylate]	–
109 to 111 °C	COC(=O)c1cn(C2CC2)c2c(F)c(N3CC4CCOC4(CN)C3)c(F)cc2c1=O.Cl (stereo not drawn)	–
119 to 120 °C (dec.)	NCC12CN(c3c(F)cc4c(=O)c(C(=O)OCc5ccccc5)cn(C5CC5)c4c3F)CC1CCO2.O=C(O)C(F)(F)F (stereo not drawn)	–
125 to 128 °C (dec.)	Cc1nc(N2CC3CCOC3(CN)C2)c(Cl)c2c1c(=O)c(C(=O)O)cn2C1CC1.O=C(O)C(F)(F)F (stereo not drawn)	–
133 to 135 °C (dec.)	C=CCOC(=O)c1cn(C2CC2)c2c(F)c(N3CC4CCOC4(CN)C3)c(F)cc2c1=O (stereo not drawn) [Example 12 B, Allyl 7-(1-aminomethyl-2-oxa-7-aza-bicyclo[3.3.0]oct-7-yl)-1-cyclopropyl-6,8-difluoro-1,4-dihydro-4-oxo-3-quinolinecarboxylate]	–
118 to 119 °C (dec.)	C=CCOC(=O)c1cn(C2CC2)c2c(F)c(N3CC4CCOC4(CN)C3)c(F)cc2c1=O.O=C(O)C(F)(F)F (stereo not drawn)	–
185 to 187 °C (dec.)	NC(=O)NCC12CN(c3c(F)cc4c(=O)c(C(=O)O)cn(C5CC5)c4c3F)CC1CCO2 (stereo not drawn) [Example 27, 1-cyclopropyl-6,8-difluoro-1,4-dihydro-4-oxo-7-(1-ureidomethyl-2-oxa-7-aza-bicyclo[3.3.0]oct-7-yl)-3-quinolinecarboxylic acid]	MIC [2]: ≤ 0.015 µg/mL; MIC [3]: 0.5 µg/mL (≈ 1.12 µM)
127 to 129 °C (dec.)	C#CCOC(=O)c1cn(C2CC2)c2c(F)c(N3CC4CCOC4(CN)C3)c(F)cc2c1=O (stereo not drawn) [Example 13 B, Propargyl 7-(1-aminomethyl-2-oxa-7-aza-bicyclo[3.3.0]oct-7-yl)-1-cyclopropyl-6,8-difluoro-1,4-dihydro-4-oxo-3-quinolinecarboxylate]	–
208 to 209 °C (dec.)	O=CNCC12CN(c3c(F)cc4c(=O)c(C(=O)O)cn(C5CC5)c4c3F)CC1CCO2 (stereo not drawn) [Example 31, 1-cyclopropyl-6,8-difluoro-7-(1-formylaminomethyl-2-oxa-7-aza-bicyclo[3.3.0]oct-7-yl)-1,4-dihydro-4-oxo-3-quinolinecarboxylic acid]	MIC [2]: < 0.5 µg/mL; MIC [3]: 0.5 µg/mL (≈ 1.15 µM)
117 to 119 °C (dec.)	CCCCOC(=O)c1cn(C2CC2)c2c(F)c(N3CC4CCOC4(CN)C3)c(F)cc2c1=O (stereo not drawn) [Example 11 B, 1-Butyl 7-(1-aminomethyl-2-oxa-7-aza-bicyclo[3.3.0]oct-7-yl)-1-cyclopropyl-6,8-difluoro-1,4-dihydro-4-oxo-3-quinolinecarboxylate]	–

Further lines, the compound ahead of its results:

SMILES	melting point	other results
O=C(O)c1cn(C2CC2)c2c(Cl)c(N3C[C@@H]4CCCN[C@@H]4C3)c(F)cc2c1=O [BAY Y 3118, 8-chloro-1-cyclopropyl-7-([S,S]-2,8-diazabicyclo[4.3.0]non-8-yl)-6-fluoro-1,4-dihydro-4-oxo-3-quinolinecarboxylic acid, reference compound]	–	Eradication of H. felis in the mouse model [1]: not possible to achieve eradication
NCC12CN(c3ncc4c(=O)c(C(=O)O)cn(C5CC5)c4c3F)CC1CCO2 (stereo not drawn) (as salt: hydrochloride)	301 to 304 °C (dec.)	–
Cl.N#Cc1c(N2CC3CCOC3(CN)C2)c(F)cc2c(=O)c(C(=O)O)cn(C3CC3)c12 (single isomer, unassigned; (+)) [Example 5 C, (+)-7-(1-aminomethyl-2-oxa-7-aza-bicyclo[3.3.0]oct-7-yl)-8-cyano-1-cyclopropyl-6-fluoro-1,4-dihydro-4-oxo-3-quinolinecarboxylic acid hydrochloride]	–	Clearance % [1]: 100%
C[C@H]1COc2c(N3CC4CCOC4(CN)C3)c(F)cc3c(=O)c(C(=O)O)cn1c23.Cl (stereo partly drawn)	191 to 193 °C (dec.)	–
C=Cc1c(F)c(N2CC3CCOC3(CN)C2)c(F)c2c1c(=O)c(C(=O)O)cn2C1CC1.Cl (stereo not drawn) [Ref.*^)]	–	MIC H. pylori 008 [2]: 0.25 µg/mL; MIC H. pylori 11637 ([3]; lowest concentration with no visible growth): 0.25 µg/mL
CCn1cc(C(=O)O)c(=O)c2cc(F)c(N3CCNC(C)C3)c(F)c21 (stereo not drawn) [lomefloxacin, reference compound]	–	Eradication of H. felis in the mouse model [1]: not capable of eradicating the germ
CC(C)(C)n1cc(C(=O)O)c(=O)c2cc(F)c(N3CC4CCOC4(CN)C3)cc21 (stereo not drawn) [Example 17 B, 7-(1-aminomethyl-2-oxa-7-aza-bicyclo[3.3.0]oct-7-yl)-1-tert-butyl-6-fluoro-1,4-dihydro-4-oxo-3-quinolinecarboxylic acid]	217 to 218 °C (dec.)	–
Cl.NCC12CN(c3c(F)cc4c(=O)c(C(=O)O)cn(C5CC5)c4c3F)CC1CCO2 (racemic) [Substance A, rac. 7-(1-aminomethyl-2-oxa-7-aza-bicyclo[3.3.0]oct-7-yl)-1-cyclopropyl-6,8-difluoro-1,4-dihydro-4-oxo-3-quinolinecarboxylic acid hydrochloride]	–	Clearance % [1]: 67%; Eradication of the pathogen ([1]; 14-day treatment of the mice with 3×10 mg/kg): total eradication
C=Cc1c(F)c(N2CC3CCOC3(CN)C2)c(F)c2c1c(=O)c(C(=O)O)cn2C1CC1.Cl (stereo not drawn) [Ref.*^), 7-(1-aminomethyl-2-oxa-7-aza-bicyclo[3.3.0]oct-7-yl)-1-cyclopropyl-6,8-difluror-1,4-dihydro-4-oxo-5-vinyl-3-quinolinecarboxylic acid hydrochloride]	–	Activity against H. pylori [4]: relatively low
NC(=O)NCC12CN(c3c(F)cc4c(=O)c(C(=O)O)cn([C@@H]5C[C@@H]5F)c4c3Cl)CC1CCO2 (stereo partly drawn) [Example 30, 8-chloro-6-fluoro-1-[(1R,2S)-2-fluoro-cyclopropyl]-1,4-dihydro-4-oxo-7-(1-ureidomethyl-2-oxa-7-aza-bicyclo[3.3.0]oct-7-yl)-3-quinolinecarboxylic acid]	–	MIC [2]: 0.25 µg/mL (≈ 0.518 µM); MIC [3]: 0.125 µg/mL (≈ 0.259 µM)
NC(=O)NCC12CN(c3c(F)cc4c(=O)c(C(=O)O)cn(C5CC5)c4c3OC(F)F)CC1CCO2 (stereo not drawn) [Example 29, 1-cyclopropyl-8-difluoromethoxy-6-fluoro-1,4-dihydro-4-oxo-7-(1-ureidomethyl-2-oxa-7-aza-bicyclo[3.3.0]oct-7-yl)-3-quinolinecarboxylic acid]	–	MIC [2]: 8 µg/mL (≈ 16.1 µM); MIC [3]: 8 µg/mL (≈ 16.1 µM)
COc1c(N2CC3CCOC3(CN)C2)c(F)c(N)c2c(=O)c(C(=O)O)cn(C3CC3)c12.Cl (stereo not drawn)	242 to 244 °C (dec.)	–
Cc1c(F)c(N2CC3CCOC3(CN)C2)cc2c1c(=O)c(C(=O)O)cn2C1CC1.Cl (stereo not drawn)	251 to 253 °C (dec.)	–
COc1c(N2CC3CCOC3(CN)C2)c(F)c(N)c2c(=O)c(C(=O)O)cn(C3CC3)c12 (stereo not drawn) [Example 2 C, 5-amino-7-(1-aminomethyl-2-oxa-7-aza-bicyclo[3.3.0]oct-7-yl)-1-cyclopropyl-6-fluoro-1,4-dihydro-8-methoxy-4-oxo-3-quinolinecarboxylic acid]	209 to 211 °C (dec.)	–
Cl.NCC12CN(c3cc4c(c(O)c3F)c(=O)c(C(=O)O)cn4C3CC3)CC1CCO2 (stereo not drawn)	225 °C (dec.)	–
NCC12CN(c3cc4c(cc3F)c(=O)c3c(=O)[nH]sc3n4C3CC3)CC1CCO2.O=C(O)C(F)(F)F (stereo not drawn)	215 °C (dec.)	–
CNn1cc(C(=O)O)c(=O)c2cc(F)c(N3CC4CCOC4(CN)C3)c(F)c21.Cl (stereo not drawn)	177 to 179 °C (dec.)	–
Cl.NCC12CN(c3nc4c(cc3F)c(=O)c(C(=O)O)cn4-c3cnsn3)CC1CCO2 (stereo not drawn)	207 °C (dec.)	–
CC(C)(CF)n1cc(C(=O)O)c(=O)c2cc(F)c(N3CC4CCOC4(CN)C3)cc21.O=C(O)C(F)(F)F (stereo not drawn)	197 to 198 °C (dec.)	–
CN1COc2c(N3CC4CCOC4(CN)C3)c(F)cc3c(=O)c(C(=O)O)cn1c23.Cl (stereo not drawn)	233 °C	–
